Test results as given in patent US20040171795A1, “Novel peptides” (priority 2000, published 2004).

Assays:
[1] = Measurement of turbidity in BSA; type: physicochemical; conditions: BSA 1%, peptide 50 μM, absorbance at 600 nm
Procedure: The solutions were evaluated for their absorbance at a wavelength of 600 nm by using a spectrophotometer (DU640, manufactured by Beckman).

[2] = Affinity for phosphatidyl serine (EIA, inhibition of human Factor VIII binding); conditions: for IC50: class of IC50 for inhibiting human Factor VIII binding, 5% BSA
Procedure: The specific affinity of the peptide for phosphatidyl serine was evaluated by measuring activity of the peptide for inhibiting the binding of the human Factor VIII to phosphatidyl serine by using human Factor VIII which is known to bind to phosphatidyl serine but not to phosphatidyl choline in the presence of serum albumin. To be more specific, 100 μL of ethanol solution containing 10 μg/mL of phospholipids at a phosphatidyl serine (manufactured by SIGMA): phosphatidyl choline (manufactured by SIGMA) ratio of 3:7 was added to the wells of a 96 well plate (Immulon I, manufactured by Dynatech), and exsiccated by using a centrifugal evaporator (EC-95C, manufactured by Sakuma Seisakusho) at 40° C. for 40 minutes. 200 μL each of TBS (10 mM Tris-HCl (pH 7.4) containing 1% bovine serum albumin (BSA Fraction V, hereinafter referred to as BSA, manufactured by Seikagaku Corporation) and 0.9% (W/V) NaCl solution were added to each well, and the wells were blocked by allowing the plate to stand at 37° C. for 2.5 hours. After washing the plate with water, 100 μL of TBS solution supplemented with 5% BSA mixed with human Factor VIII (manufactured by American Diagnostica) at a final concentration 1 μg/mL and the peptide of predetermined dose prepared in Example 1 was added to each well, and the reaction was allowed to take place at 4° C. for 24 hours.
After the completion of the reaction, the human Factor VIII that became bound to the phosphatidyl serine was measured by enzyme immunoassay (EIA) in accordance with the general procedure described in a book (“Enzyme Immunoassay (3rd ed.)”, Eiji Ishikawa et al., Igaku-Shoin, 1987). To be more specific, the measurement was conducted by using anti-human Factor VIII mouse monoclonal antibody (ESH8, manufactured by American Diagnostica) for the primary antibody, horseradish peroxidase-labeled anti-mouse IgG antibody (P0260, manufactured by Daco) for the secondary antibody, and tetramethylbenzidine for the chromogenic substrate, and measuring the absorption at a wavelength of 450 nm by using a reference wavelength of 630 nm on a spectrophotometer (NJ-2100, manufactured by Intermed).
Intensity of the affinity of the peptide for the phosphatidyl serine was evaluated by using the value obtained by subtracting the absorption of the well having no human Factor VIII added thereto from the absorption of the well having only the human Factor VIII added thereto as the control value (100%), and designating the peptide concentration at which the value 0.5 was obtained when the value obtained by subtracting the absorption of the well having only the peptide added thereto from the absorption of the well having a mixture of the human Factor VIII and the peptide added thereto were divided by the control value as the IC50 value, and evaluating the intensity to be ++ when the IC50 value was up to 1 μM, and +when the intensity was more than 1 μM but not more than 10 μM. It is to be noted that the specific affinity was evaluated to be none when the intensity was 10 μM or more.

[3] = tested on: cell (Vero, T24 or A549 of Example 9; not given); test: Nucleic acid-introducing ability, luciferase-expressing plasmid (procedure of Example 9); type: cell-based; conditions: for ability of introducing the nucleic acid into a cell: procedure of Example 9, luciferase-expressing plasmid; for Nucleic acid-introducing ability: class of fluorescent count per 1 mg of protein per 1 second, highest of peptide 1.25, 2.5, 5 μM, plasmid 1 μg/mL
Excerpt: A cell line established from monkey kidney (Vero cell) and a human bladder cancer cell (T24 cell) purchased from American Type Culture Collection (ATCC) and human lung cancer cell (A549 cell) purchased from Dainippon Pharmaceutical were inoculated on a 24 well culture plate (manufactured by NALGEN NUNC) at 1×10^5 cells/well. Vero cell and A549 cell were cultivated in DMEM (manufactured by Life Technologies Oriental) supplemented with 10% fetal bovine serum (hereinafter referred to as FBS, manufactured by NICHIREI), and T24 cell was cultivated in McCoy's 5a (manufactured by Life Technologies Oriental) supplemented with 10% FBS in 5% CO2 atmosphere at 37° C. for 24 hours. After removing the medium, opti-MEM (manufactured by Life Technologies Oriental) prepared to have the concentration of the luciferase-expressing plasmid prepared in Example 7 of 1 μg/mL and the concentration of the peptide prepared in Example 1 of 1.25, 2.5, or 5 μM was added, and the cells were cultivated for 5 hours. Next, in the case of Vero cell and A549 cell, the culture medium was replaced with DMEM supplemented with 10% FBS, and in the case of T24 cell, the medium was replaced with McCoy's 5a supplemented with 10% FBS, and cultivation was continued in 5% CO2 atmosphere and at 37° C. for another 24 hours. The luciferase activity expressed in the cell was then measured by the method instructed in luciferase assay system (manufactured by Promega). To be more specific, the cells were washed with phosphate-buffered saline (hereinafter referred to as PBS, manufactured by SIGMA), and the cells were lyzed with Passive Lysis Buffer attached to the kit. 20 μL of this cell lysate and 100 μL of the Luciferase Assay Reagent II attached to the kit was added to a fluorescence-measuring plate (Microlite™ 1 plate, manufactured by Dynatech), and after mixing, fluorescence was measured for 1 second by using a multilabel counter (ARVO™ SY1420 MULTILABEL COUNTER, manufactured by Wallac Beltold.
Concentration of the protein in the cell lysate was measured by mixing 8 μL of the cell lysate and 200 μL of the protein assay solution (manufactured by Biorad) with 792 μL of ultrapure water in a disposable cuvette (UV fluorescent cuvette A204X, manufactured by Funakoshi), allowing the mixture to stand for 5 minutes at room temperature, and measuring the absorption at 595 nm with a spectrophotometer (DU640, manufactured by Beckman). Bovine serum albumin (BSA) was used for the standard protein. By using the thus obtained results, count per 1 second per 1 mg of protein of the cell lysate was calculated to thereby use the count as the luciferase activity, and the highest count in the three conditions of different peptide concentration was designated the gene-introducing ability of the peptide.
It is to be noted that the nucleic acid-introducing ability was classified as described below on the bases of the fluorescent count per 1 mg of protein per 1 second (cps/mg protein).

Row | Substance | OD 600 [1] | Nucleic acid-introducing ability [3] | IC50 [2] [nM] | further results
1 | Polylysine [reference compound] | ≥ 1 | – | – | affinity for phosphatidyl serine ([2]; procedure of Example 20): no affinity for phosphatidyl serine
2 | SEQ ID NO:26: comparative peptide, SEQ ID NO:1 substituted so that it lacks the four sided 18 amino acid sequence (TRYLRIHPRSWVLQIALRLRYLRIHPRSWVLQIALRS; synthetic peptide using an automatic peptide synthesizer) [reference compound] | – | – | – | fluorescent count ([3]; procedure of Example 9): less than 10,000 cps/mg protein; ability of introducing the nucleic acid into a cell [3]: no nucleic acid-introducing ability was found
3 | SEQ ID NO: 2: peptide of SEQ ID NO:1 with one or two locations substituted in the 18 amino acid sequence (TRYLRIHPRSWVRQIALRLRYLRIHPRSWVRQIALRS; synthetic peptide using an automatic peptide synthesizer) | 0.01> | 3+ (1,000,000 to less than 10,000,000) | < 1000 | –
4 | SEQ ID NO: 3: peptide of SEQ ID NO:1 with one or two locations substituted in the 18 amino acid sequence (TRYLRIHPRSWVHQIRLRLRYLRIHPRSWVHQIRLRS; synthetic peptide using an automatic peptide synthesizer) | 0.01> | 2+ (100,000 to less than 1,000,000) | < 1000 | –
5 | SEQ ID NO: 5: peptide of SEQ ID NO:1 with one or two locations substituted in the 18 amino acid sequence (TRFLRIHPRSWVHQIALRLRFLRIHPRSWVHQIALRS; synthetic peptide using an automatic peptide synthesizer) | 0.01> | 2+ (100,000 to less than 1,000,000) | < 1000 | –
6 | SEQ ID NO: 6: peptide of SEQ ID NO:1 with one or two locations substituted in the 18 amino acid sequence (TRYLRIHPRSWVHNIALRLRYLRIHPRSWVHNIALRS; synthetic peptide using an automatic peptide synthesizer) | 0.01> | 2+ (100,000 to less than 1,000,000) | < 1000 | –
7 | SEQ ID NO: 7: peptide of SEQ ID NO:1 with one or two locations substituted in the 18 amino acid sequence (TRYLRIHPRSWVHQIALKLKYLRIHPRSWVHQIALRS; synthetic peptide using an automatic peptide synthesizer) | 0.01> | 2+ (100,000 to less than 1,000,000) | 1000 to 10000 | –
8 | SEQ ID NO: 9: peptide of SEQ ID NO:1 with one or two locations substituted in the 18 amino acid sequence (TRYLRIHPRSWVHQIALRTRYLRIHPRSWVHQIALRS; synthetic peptide using an automatic peptide synthesizer) | – | 3+ (1,000,000 to less than 10,000,000) | – | –
9 | SEQ ID NO: 12: peptide of SEQ ID NO:1 with one or two locations substituted in the 18 amino acid sequence (TRYLRIHPRSWVHQIALSLRYLRIHPRSWVHQIALSS; synthetic peptide using an automatic peptide synthesizer) | – | 2+ (100,000 to less than 1,000,000) | – | –
10 | SEQ ID NO: 13: peptide of SEQ ID NO:1 with one or two locations substituted in the 18 amino acid sequence (TRYLRIHPRSLVHQIALRLRYLRIHPRSLVHQIALRS; synthetic peptide using an automatic peptide synthesizer) | – | 3+ (1,000,000 to less than 10,000,000) | – | –
11 | SEQ ID NO: 14: peptide of SEQ ID NO:1 with one or two locations substituted in the 18 amino acid sequence (TRYLRIHPRSWSHQIALRLRYLRIHPRSWSHQIALRS; synthetic peptide using an automatic peptide synthesizer) | – | 3+ (1,000,000 to less than 10,000,000) | – | –
12 | SEQ ID NO: 18: peptide of SEQ ID NO:1 with one or two locations substituted in the 18 amino acid sequence (TRYLRIHPRSWLHQIALRTRYLRIHPRSWLHQIALRS; synthetic peptide using an automatic peptide synthesizer) | – | 4+ (10,000,000 or more) | – | –
13 | SEQ ID NO: 20: peptide of SEQ ID NO:1 with three locations substituted in the 18 amino acid sequence (TRYLRLHPRSWVHQLALRTRYLRLHPRSWVHQLALRS; synthetic peptide using an automatic peptide synthesizer) | – | 4+ (10,000,000 or more) | – | –
14 | SEQ ID NO: 21: peptide of SEQ ID NO:1 with three locations substituted in the 18 amino acid sequence (TKYLKIHPKSWVHQIALRLKYLKIHPKSWVHQIALRS; synthetic peptide using an automatic peptide synthesizer) | – | 2+ (100,000 to less than 1,000,000) | – | –
15 | SEQ ID NO: 22: peptide of SEQ ID NO:1 with three locations substituted in the 18 amino acid sequence (TRRLRIHPRRWVHRIALRLRRLRIHPRRWVHRIALRS; synthetic peptide using an automatic peptide synthesizer) | – | 3+ (1,000,000 to less than 10,000,000) | – | –
16 | SEQ ID NO: 24: deletion mutant of the peptide of SEQ ID NO:4 (TLRYLRIHPRSWLHQIALRS; synthetic peptide using an automatic peptide synthesizer) | – | 1+ (10,000 to less than 100,000) | – | ability of introducing the nucleic acid into a cell [3]: had the ability of introducing the nucleic acid into a cell
